The text below walks through data of article PMC9508125, “The evolutionary advantage of an aromatic clamp in plant family 3 glycoside exo-hydrolases” (Nature Communications, 2022).

A word on the Km: it is the concentration of substrate that gives half-maximal velocity. By kcat is commonly meant the maximal rate divided by the concentration of active sites.

Changes are numbered by the printed parent chain.

What all share (experiment): Steady-state apparent kinetic constants with substrates
What all share (assay type): biochemical

One test addresses T1, HvExoI W434A mutant (Hordeum vulgare, UniProt Q9XEI3, W459A).
T1 sequence (Q9XEI3 26-630 W459A): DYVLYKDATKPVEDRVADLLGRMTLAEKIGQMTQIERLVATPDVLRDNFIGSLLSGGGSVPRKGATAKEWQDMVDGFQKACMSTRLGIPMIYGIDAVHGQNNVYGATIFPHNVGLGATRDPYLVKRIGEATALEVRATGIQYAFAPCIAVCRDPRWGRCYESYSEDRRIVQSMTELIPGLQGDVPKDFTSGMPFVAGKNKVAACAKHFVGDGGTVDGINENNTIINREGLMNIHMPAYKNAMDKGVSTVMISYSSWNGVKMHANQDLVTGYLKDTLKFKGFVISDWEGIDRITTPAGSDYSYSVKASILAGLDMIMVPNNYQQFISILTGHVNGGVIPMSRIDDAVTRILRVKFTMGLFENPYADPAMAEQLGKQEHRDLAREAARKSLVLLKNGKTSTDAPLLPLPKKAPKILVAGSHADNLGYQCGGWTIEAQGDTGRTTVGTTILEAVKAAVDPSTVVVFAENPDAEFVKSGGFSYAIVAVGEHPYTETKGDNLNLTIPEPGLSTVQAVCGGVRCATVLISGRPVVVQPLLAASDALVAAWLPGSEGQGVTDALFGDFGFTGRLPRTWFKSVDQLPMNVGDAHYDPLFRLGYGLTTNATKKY
The protocol: (§1) Dependency of activities of WT and mutant HvExoI on pH (McIlvaine buffers in the pH range of 3.5–8.5 at 30 °C) and temperature (100 mM sodium acetate buffer, pH 5.25, temperature range 0–80 °C, 15 min incubations) were determined using 0.2% (w/v) 4NP-Glc[21],[59]. Relative rates of hydrolysis of β-linked poly-, oligosaccharides, and aryl-glucosides were determined using near-homogenous HvExoI at 50 pmoles. […] Kinetic parameters were calculated from the analyses of Michaelis-Menten plots with Grafit 7.0.3[62] and processed by a proportional weighted fit, using nonlinear regression. The relative rates of hydrolysis, kinetic, and inhibition data were rounded to one or two decimal points (Supplementary Tables 2–4).

Another test concerns the target T2, HvExoI W434F mutant (Hordeum vulgare, UniProt Q9XEI3, W459F).
T2 sequence (Q9XEI3 26-630 W459F): T1 sequence (Q9XEI3 26-630 W459A) with A434F
Conditions: substance is the substrate. The method, then: as §1

Another test deals with T3, HvExoI W286Y mutant (Hordeum vulgare, UniProt Q9XEI3, W311Y).
T3 sequence (Q9XEI3 26-630 W311Y): T1 sequence (Q9XEI3 26-630 W459A) with W286Y, A434W
Conditions: substance is the substrate. The method, then:
as §1

For `OC[C@H]1O[C@@H](O[C@H]2[C@H](O)[C@@H](CO)OC(O)[C@@H]2O)[C@H](O)[C@@H](O)[C@@H]1O` (some centres unmarked) [Laminaribiose], on HvExoI W434A mutant, the “fold decrease of kcat compared to WT” value is recorded as “about 21 fold”.

As to laminarin, at HvExoI W434F mutant, the Km amounted to 200 ± 10 µM and the catalytic constant (kcat) was determined as 8.0 ± 0.7 s⁻¹. Further, at HvExoI W286Y mutant, the Km turned out to be 100 ± 10 µM and the kcat is 30.3 ± 2.4 s⁻¹.
